Measured values: patent US8361715B2, “Method for suppressing a FRET signal, FRET signal suppressor agents and use in a method for multiplexing biological events” (CIS Bio International, priority 2006, dated 2013)

Tests used:
[1] = tested on: trisbipyridine cryptate TBP; details: TBP donor, d2 acceptor; 20 mM; incubation 16 h at ambient temperature
Method: Two identical experiments aimed at detecting a GST-biotin protein were carried out. In each of the experiments, a particular rare earth complex was used as FRET donor: either the trisbipyridine cryptate TBP or a terbium chelate sold in a form conjugated to an anti-GST antibody by the company Invitrogen (Cat no. PV3568).
The biotinylated GST protein was dispensed into a 96-well plate. Its presence was detected by FRET between the donor (the TBP or the terbium chelate) (carried by an anti-GST antibody) and the d2 acceptor (carried by streptavidin), after incubation for 16 h at ambient temperature in the presence or absence of 20 mM of manganese chloride (MnCl2) or of EDTA. A time-resolved fluorescence measurement is carried out (td=50 μs, tg=400 μs) at 620 nm and 665 nm (respectively E620 and E665) on a Rubystar® machine (BMG Labtech). Based on the fluorescence intensity values, E620 and E665, the E665/E620 intensity ratio is calculated and multiplied by 10 000 for greater convenience. […] In order to compare the delta F values obtained in the various media for the same donor, said values are normalized relative to the delta F obtained in buffer (100%).

[2] = tested on: pyridine-bis(bipyridine) cryptate PBP4COOH; assay: FRET between PBP4COOH donor and d2 acceptor (biotinylated GST detection) with uric acid; details: PBP4COOH donor, 60 μM, incubation 16 h at ambient temperature
Method: (§1) In each of the experiments, a particular rare earth complex was used as FRET donor: either the trisbipyridine cryptate TBP or a pyridine-bis(bipyridine) cryptate PBP4COOH of formula: […]
(§2) Its presence was detected via FRET between the donor (the TBP or PBP4COOH) (carried by the anti-GST antibody) and the d2 acceptor (carried by streptavidin), after incubation for 16 h at ambient temperature in the presence or absence of 60 μM of uric acid. A time-resolved fluorescence measurement (td=50 μs, tg=400 μs) is carried out at 620 nm and 665 nm (E620 and E665, respectively) on a Rubystar® machine (BMG Labtech).
(§3) • 1.25 nM biotinylated GST; 2 nM anti-GST; 5 nM streptavidin; • 60 μm uric acid. Final reaction volume: 200 μl Buffer: 100 mM phosphate, pH 7.0, 0.10% BSA. Results

europium cryptate TBP = assay: FRET between TBP donor and d2 acceptor (biotinylated GST detection) with uric acid; details: TBP donor, 60 μM, incubation 16 h at ambient temperature
Method: as §1, §2, §3

Molecule	FRET signal (normalized delta F) [1]	FRET signal (normalized delta F) [2]	FRET signal inhibited (europium cryptate TBP)
manganese chloride [MnCl2]	does not modify	–	–
O=c1[nH]c(=O)c2[nH]c(=O)[nH]c2[nH]1 [uric acid]	–	does not modify	more than 85%
O=C(O)CN(CCN(CC(=O)O)CC(=O)O)CC(=O)O [EDTA]	does not modify	–	–
